# From patent publication US20140161767A1, “FOLLICLE-STIMULATING HORMONE (FSH)/LYTIC DOMAIN FUSION CONSTRUCTS AND METHODS OF MAKING AND USING SAME” (BOARD OF SUPERVISORS OF LOUISIANA STATE UNIVERSITY AND …, priority 2012, published 2014)
# Experiments:
# OVCAR-3 xenograft = assay: OVCAR-3 ovarian cancer xenograft; type: in vivo
# Experimental: The xenograft model of the OVCAR-3 human ovarian cancer cell line that present functional LHRH receptors was used in this study. OVCAR-3 represents a slow growing xenograft model and secretes the tumor marker (cancer antigen 125, or CA125). It's secretion can be used as treatment response and is a measure of drug activity.
# In brief, Nu/Nu female mice, inbred strain, age 5 weeks (Harlan-Sprague Dawley) were injected subcutaneously with a NIH:OVCAR-3 cells/Matrigel suspension (4.6×10^6 cells/mouse). Treatment was started on day 33 after tumor cell injection when the tumors were established and continued on days 41 and 47. The doses for the 3 weekly injections were 0.02, 0.2 and 2 mg/kg body weight, given as a single bolus intravenous injection via lateral tail vein administered once a week for three weeks on days 33, 41 and 47. Necropsies were conducted on day 52. Data are presented as mean SEM. Arrows show dosing.
# A group of 9 tumor bearing mice was sacrificed on day 33 and served as baseline group. All mice were necropsied 51-52 days after tumor cell injection. Tumor volumes and bodyweights were recorded twice weekly during the study, as well as overall veterinarian examination of mice was conducted.
# Primary tumors, liver, kidney, pancreas, heart, lung, and spleen were collected, fixed in formalin and prepared for histological evaluation. Tumor weights were measured at necropsy, part of the tumors were frozen at −80° C. for LH/CG and LHRH receptor assay determination.
# As a biomarker for drug activity, CA125 was determined in serum, collected from each individual mouse at necropsy using a Enzyme Linked Immunoassay for quantitative determination of ovarian cancer antigen CA125 (Assay kit Genway, Biotech, Inc. San Diego, Calif., Catalog #40-052-115009, # BC-1013 according to the manufacturer).
# LHRH receptor levels were assessed from formalin fixed tumors. Quantitative immunoperoxidase image analysis was conducted with the Ventana Image Analysis System (VIAS) adjunctive computer assisted image analysis system functionally connected to an interactive microscope (Axio Imager). The quantitative analysis was conducted with the program for quantification of Her2/neu receptor that included morphometric and colorimetric analysis. Receptor status results were reported as percentage of cells showing positive staining of the LHRH receptors under the following criteria: 0 non-immunoreactive, 1+: 1-25% positive, 2+: 26 50% positive, 3+: 51-75% positive cells.
# MDA-MB-435S = conditions: cited from earlier work
# PC-3 xenograft = assay: PC-3 prostate cancer xenograft, FSH-Phor18 fusion constructs; type: in vivo, mice; conditions: compared to vehicle
# Experimental: This example describes in vivo studies in a mouse xenograft model of human prostate cancer (PC-3) with the three types and doses of (3-FSH-Phor18-fusion constructs (hFSH-β-33-53; hFSH-β-81-95 and hFSH-β-90-95).
# Male Nu/Nu mice were injected subcutaneously with a PC-3/Matrigel suspension (1×10^6 cells). Mice were allocated into treatment groups of 8 mice per group on day 21 after tumor cell injection. Treatment started on day 1 and continued on day 5, 8, 12, 15 and 19. […] The doses for twice weekly injections were given as a single bolus injection.
Compound,Tumor volume at necropsy (PC-3 xenograft),other results
"N.N.[Cl][Pt][Cl] [Cisplatinum, reference compound]",–,"Tumor weights at necropsy (OVCAR-3 xenograft; Phor18-LHRH: 2 and 0.2 mg/kg vs saline and Phor18, p<0.05): not effective; Tumor volume (OVCAR-3 xenograft; during treatment): no reduction"
COc1cccc2c1C(=O)c1c(O)c3c(c(O)c1C2=O)C[C@@](O)(C(=O)CO)C[C@@H]3O[C@H]1C[C@H](N)[C@H](O)[C@H](C)O1 [doxorubicin],–,time to destroy human breast cancer cells in vitro (MDA-MB-435S): 4 h
"CYTRDLVYKDPARPKIQKTCT [hFSH-β-33-53, unconjugated FSH beta chain fragment]",did not affect tumor volumes or tumor weights,–
"DSTDCT (Follitropin subunit beta; UniProt P01225 108-113, looked up, fragment) [hFSH-β-90-95, unconjugated FSH beta chain fragment]",did not affect tumor volumes or tumor weights,–
"QCHCGKCDSDSTDCT [hFSH-β-81-95, unconjugated FSH beta chain fragment]",did not affect tumor volumes or tumor weights,–
